Source: patent publication US11066638B2 (priority 2016, dated 2021)
Values after ≈ are worked out from the molar mass of the structure shown. Read-outs that look alike come from different tables or passages of the source.

Legend:
[1] = system: Listeria monocytogenes; settings: for colony formation of bacterial ghosts plated on BHI agar media: MIC
Method: Specifically, a BHI liquid medium was inoculated with Listeria, and incubated for 72 hours. After incubation, centrifugation was performed at 10,000 g for 10 minutes to obtain the cultured Listeria. […] Listeria was obtained at 15, 30, 45, 60 and 90 minutes after the beginning of culture and the lysis rate was measured.

[2] = system: Listeria monocytogenes; settings: 18 hours
[3] = system: Listeria monocytogenes; settings: BHI liquid medium, 10^6 CFU/ml, 37° C., 18 hours, optical density at 600 nm
Method: (§1) Specifically, Listeria monocytogenes, a gram-positive bacterium, was cultured in a brain-heart infusion (BHI) medium at 7° C. and 200 rpm under shaking conditions overnight, and then the degree of bacterial growth was determined by measuring optical density at 600 nm using a Biochrom Libra S22 spectrophotometer.

[4] = system: Listeria monocytogenes; assay: microbe, parasite or virus in culture; settings: 18 h, read-out: minimum inhibitory concentration (MIC)
Method: as §1

[5] = treated with 6.25 mg/ml (MIC), plated without dilution, 37° C.

Row | Structure (SMILES) | time to formation of bacterial ghosts after treatment ([1]; MIC 6.25 mg/ml, 37° C., 10^6 CFU/ml Listeria in PBS) | colony formation of bacterial ghosts plated on BHI agar media ([1]; ghosts prepared from 10 minutes after treatment) | colony formation on BHI agar medium ([2]; treated with 3.125 mg/ml, plated without dilution, 37° C.) | colony formation on BHI agar medium [2, 5] | minimum inhibitory concentration (MIC) [3] [µg/mL] | colony formation of bacterial ghosts plated on BHI agar media ([1]; ghosts prepared from 15 minutes after treatment) | lysis rate of gram-positive bacteria ([1]; at about 15 minutes after the MIC has been applied) [%] | colony formation on BHI agar medium ([2]; treated with 3.125 mg/ml, diluted to a dilution factor of 1/10, 37° C.) | MIC [4] [µg/mL]
1 | [Na+].[OH-] [sodium hydroxide] | about 10 minutes | colonies were not formed | thousands of colonies were formed | no viable colony was formed | 6250 | – | – | – | –
2 | Cl [hydrochloric acid] | – | – | – | no viable colony was formed | – | colonies were not formed | 100 | tens of colonies were also formed | 6250 (≈ 171 mM)
